Values after ≈ are worked out from the molar mass of the structure shown. Read-outs that look alike come from different tables or passages of the source.
What was measured:
Test in all cases: MIC, serial dilution method on Iso-Sensitest agar
Assay type in all cases: cell-based
[1] = system: Acinetobacter; details: strain 14068, 37° C., about 20 hours
Description: (§1) The minimum inhibitory concentrations (MIC) of the compounds according to the invention were determined by serial dilution methods on Iso-Sensitest agar (Oxoid). For each test substance, a series of agar plates was prepared which contained decreasing concentrations of the active compound at, in each case, double dilution. The agar plates were inoculated with a multipoint inoculator (Denley). For inoculation, overnight cultures of the pathogens were reed which had previously been diluted such that each inoculation point contained about 10^4 colony-forming particles. The inoculated agar plates were incubated at 37° C., and the growth of microorganism was read off after about 20 hours. The MIC value (μg/ml) indicates the lowest active compound concentration at which no growth was to be detected with the naked eye.

[2] = system: E. coli; details: Escherichia coli, 37° C., about 20 hours
Description: as §1

[3] = system: Enterococcus faecalis; details: 20 h, about 20 hours
Description: as §1

[4] = system: Klebsiella pneumoniae; details: 37° C., about 20 hours
Description: as §1

[5] = system: Micrococcus luteus; details: strain 9341, 37° C., about 20 hours
Description: as §1

[6] = system: Providencia sp.; details: 20 h, about 20 hours
Description: as §1

[7] = system: Staphylococcus aureus; details: about 20 hours
Description: as §1

[8] = Klebsiella pneumoniae, strain 8085, read-out: MIC
[9] = ATCC29213, 20 h, strain ATCC 29213, 37° C.

**Q.** Which results are given for `CN1COc2c(N3C[C@H]4[C@H](N)CC=C[C@H]4C3)c(F)c(N)c3c(=O)c(C(=O)O)cn1c23` (relative stereo) [Example 11, 8-Amino-10-((1SR,2RS,6RS)-2-amino-8-azabicyclo[4.3.0]non-4-en-8-yl)-9-fluoro-3-methyl-7-oxo-2,3-dihydro-7H-pyrido[1,2,3-d,e][1,3,4]benzoxadiazine-6-carboxylic acid]?
**A.** MIC [1]: ≤ 0.015 µg/mL; MIC ([2]; ATCC25922, strain ATCC 25922): ≤ 0.015 µg/mL; MIC ([2]; strain Neumann): ≤ 0.015 µg/mL; MIC ([3]; strain 9790, 37° C.): ≤ 0.015 µg/mL; MIC ([3]; strain 27101, 37° C.): ≤ 0.015 µg/mL; MIC [4, 8]: ≤ 0.015 µg/mL; MIC ([4]; strain 63): ≤ 0.015 µg/mL; MIC [5]: 0.5 µg/mL (≈ 1.2 µM); MIC ([6]; strain 12012, 37° C.): ≤ 0.015 µg/mL; MIC ([6]; strain 12052, 37° C.): 16 µg/mL (≈ 38.5 µM); MIC ([7]; 20 h, strain 133, 37° C.): ≤ 0.015 µg/mL; MIC ([7]; 20 h, strain ICB 25701, 37° C.): 0.5 µg/mL (≈ 1.2 µM); MIC ([7]; 20 h, strain ICB 25768, 37° C.): 16 µg/mL (≈ 38.5 µM); MIC [7, 9]: ≤ 0.015 µg/mL

**Q.** What does the source list for `CNC1C=CCC2CN(c3c(F)c(N)c4c(=O)c(C(=O)O)cn5c4c3OCN5C)CC21` (centres unmarked) [Example 4, 8-Amino-9-fluoro-3-methyl-10-(2-methylamino-8-azabicyclo[4.3.0]non-3-en-8-yl)-7-oxo-2,3-dihydro-7H-pyrido[1,2,3-d,e][1,3,4]benzoxadiazine-6-carboxylicacid]?
**A.** MIC [1]: ≤ 0.015 µg/mL; MIC ([2]; ATCC25922, strain ATCC 25922): 0.03 µg/mL (≈ 0.0699 µM); MIC ([2]; strain Neumann): 0.03 µg/mL (≈ 0.0699 µM); MIC ([3]; strain 9790, 37° C.): 0.06 µg/mL (≈ 0.14 µM); MIC ([3]; strain 27101, 37° C.): 0.06 µg/mL (≈ 0.14 µM); MIC [4, 8]: 0.06 µg/mL (≈ 0.14 µM); MIC ([4]; strain 63): 0.06 µg/mL (≈ 0.14 µM); MIC [5]: ≤ 0.015 µg/mL; MIC ([6]; strain 12012, 37° C.): 0.06 µg/mL (≈ 0.14 µM); MIC ([6]; strain 12052, 37° C.): 4 µg/mL (≈ 9.31 µM); MIC ([7]; 20 h, strain 133, 37° C.): ≤ 0.015 µg/mL; MIC ([7]; 20 h, strain ICB 25701, 37° C.): 0.5 µg/mL (≈ 1.16 µM); MIC ([7]; 20 h, strain ICB 25768, 37° C.): 1 µg/mL (≈ 2.33 µM); MIC [7, 9]: ≤ 0.015 µg/mL

**Q.** What does the source list for `CN1COc2c(N3CC4CC=CC(N)C4C3)c(F)c(N)c3c(=O)c(C(=O)O)cn1c23` (centres unmarked) [Example 5, 8-Amino-10-(2-amino-8-azabicyclo[4.3.0]non-3-en-8-yl)-9-fluoro-3-methyl-7-oxo-2,3-dihydro-7H-pyrido[1,2,3-d,e][1,3,4]benzoxadiazine-6-carboxylic acid]?
**A.** MIC [1]: ≤ 0.015 µg/mL; MIC ([2]; ATCC25922, strain ATCC 25922): ≤ 0.015 µg/mL; MIC ([2]; strain Neumann): ≤ 0.015 µg/mL; MIC ([3]; strain 9790, 37° C.): 0.03 µg/mL (≈ 0.0722 µM); MIC ([3]; strain 27101, 37° C.): 0.03 µg/mL (≈ 0.0722 µM); MIC [4, 8]: 0.03 µg/mL (≈ 0.0722 µM); MIC ([4]; strain 63): 0.03 µg/mL (≈ 0.0722 µM); MIC [5]: ≤ 0.015 µg/mL; MIC ([6]; strain 12012, 37° C.): ≤ 0.015 µg/mL; MIC ([6]; strain 12052, 37° C.): 2 µg/mL (≈ 4.81 µM); MIC ([7]; 20 h, strain 133, 37° C.): ≤ 0.015 µg/mL; MIC ([7]; 20 h, strain ICB 25701, 37° C.): 0.125 µg/mL (≈ 0.301 µM); MIC ([7]; 20 h, strain ICB 25768, 37° C.): 0.25 µg/mL (≈ 0.602 µM); MIC [7, 9]: ≤ 0.015 µg/mL

**Q.** For `CC1C=CC(N)C2CN(c3c(F)c(N)c4c(=O)c(C(=O)O)cn5c4c3OCN5C)CC12` (centres unmarked) [Example 7, 8-Amino-10-(2-amino-5-methyl-8-azabicyclo[4.3.0]non-3-en-8-yl)-9-fluoro-3-methyl-7-oxo-2,3-dihydro-7-H-pyrido[1,2,3-d,e][1,3,4]benzoxadiazine-6-carboxylic acid], which MIC [1] is on record?
**A.** Its MIC is at most 0.015 µg/mL.

**Q.** And the MIC ([2]; ATCC25922, strain ATCC 25922)?
**A.** Its MIC is at most 0.015 µg/mL.

**Q.** What about the MIC ([2]; strain Neumann) of the same molecule?
**A.** Its MIC is at most 0.015 µg/mL.

**Q.** What about the MIC ([3]; strain 9790, 37° C.) of the same molecule?
**A.** The MIC was 0.03 µg/mL (≈ 0.0699 µM).

**Q.** What about the MIC ([3]; strain 27101, 37° C.) of the same molecule?
**A.** The MIC was at most 0.015 µg/mL.

**Q.** What about the MIC [4, 8] of the same molecule?
**A.** The MIC was 0.03 µg/mL (≈ 0.0699 µM).

**Q.** What about the MIC ([4]; strain 63) of the same molecule?
**A.** The MIC was 0.03 µg/mL (≈ 0.0699 µM).

**Q.** And the MIC [5]?
**A.** Its MIC is at most 0.015 µg/mL.

**Q.** And the MIC ([6]; strain 12012, 37° C.)?
**A.** The MIC was 0.03 µg/mL (≈ 0.0699 µM).

**Q.** And the MIC ([6]; strain 12052, 37° C.)?
**A.** The MIC was 2 µg/mL (≈ 4.66 µM).

**Q.** And the MIC ([7]; 20 h, strain 133, 37° C.)?
**A.** Its MIC is at most 0.015 µg/mL.

**Q.** What about the MIC ([7]; 20 h, strain ICB 25701, 37° C.) of the same molecule?
**A.** Its MIC is 0.25 µg/mL (≈ 0.582 µM).

**Q.** What about the MIC ([7]; 20 h, strain ICB 25768, 37° C.) of the same molecule?
**A.** The MIC was 0.5 µg/mL (≈ 1.16 µM).

**Q.** And the MIC [7, 9]?
**A.** Its MIC is at most 0.015 µg/mL.

Reference: US5679675A, “8-amino-10-(azabicycloalkyl)-pyrido[1,2,3-d,e][1,3,4]benzoxadiazine derivatives” (Bayer Aktiengesellschaft, priority 1994, dated 1997)
